Experimental data as given in publication PMC3565751, “The Feasibility of Enzyme Targeted Activation for Amino Acid/Dipeptide Monoester Prodrugs of Floxuridine; Cathepsin D as a Potential Targeted Enzym” (Molecules, 2012).

Tests used:
[1] = tested on: Capan-2 cell homogenates and cytosolic enzyme extracts; experiment: Prodrug stability in cytosolic enzyme extract versus whole cell homogenate of Capan-2 cells; type: in vitro ADME
Procedure: In stability studies of test compounds in cell homogenates, the location of enzymes in living cells is not considered and the inaccessible enzymes in vivo condition may be able to degrade those analytes in this in vitro setting. Therefore, the result of prodrug stabilities in cell homogenate may be different to one in vivo, where all enzymes are arranged in all specific locations. The experiments of prodrug activation concerning the location of enzymes in cells were performed at 37 °C in Capan-2 cell homogenates and in cytosolic enzyme extracts. For the comparison purpose, the same experiments were performed at 37 °C in Caco-2 cell homogenates and in cytosolic enzyme extracts. […] The difference between them was minimal (1.4- to 2.5 fold). […] In Capan-2 cells, the stabilities of 5′-O-L-phenylalanyl-L-glycylfloxuridine and 5′-O-L-phenylalanylfloxuridine were improved 7.4- and 7.3-fold, while the ones of 5′-O-L- phenylalanyl-L-tyrosylfloxuridine and 5′-O-L-glycyl-L-leucylfloxuridine were declined 3.9- and 6.0-fold, respectively.
(§1) Preparation of Cytosolic Enzyme Extract. Confluent Caco-2 cells and Capan-2 cells (2 plates; 150 mm × 25 mm plate) were rinsed with saline twice. The cells were washed off with 1 mL of pH 7.4 phosphate buffer (10 mmol/L) and the enzymes were extracted through 30 gauge needle 10 times in ice-cold bath. Cell suspension was spun at 10,000 × g for 2 h at 4 °C and the supernatant was spun at 39,000 × g for 2 h at 4 °C. Protein amount was quantified with the Bio-Rad (Hercules, CA, USA) DC Protein Assay using bovine serum albumin as a standard. The protein amount was adjusted to 500 µg/mL and the hydrolysis reactions were carried out in 96-well plates (Corning). Caco-2 cells and Capan-2 cell suspensions (250 µL) were placed in triplicate wells either presence or absence of various inhibitors, the reactions were started with the addition of substrate (200 µM), and wells were incubated at 37 °C for 120 min (time points; 0, 5, 10, 30, 60, and 120 min). At each time point, aliquot sample (35 µL) was removed and added to 150 µL of acetonitrile (ACN) with 0.1% TFA to prevent the further degradation. The mixtures were filtered with a 0.45 µm filters at 1,000 × g for 10 min at 4 °C. The filtrate wasthen analyzed via reverse-phaseHPLC.
(§2) The initial rates of hydrolysis were used to obtain the apparent first-order rate constants and estimate the half-lives. The apparent first-order degradation rate constants of various floxuridine prodrugs at 37 °C were determined by plotting the logarithm of prodrug remaining as a function of time. The slopes of these plots are related to the rate constant, k, and given by:
(§3) The concentrations of prodrugs and their metabolites were determined on a Waters HPLC system (Waters, Inc., Milford, MA, USA). The HPLC system consisted of two Waters pumps (model 515), a Waters autosampler (WISP model 712), and a Waters UV detector (996 photodiode array detector). The system was controlled by Waters Millennium 32 software (version 3.0.1). Samples were injected onto a Waters Xterra C18 reverse-phase column (5 µm, 4.6 × 250 mm) equipped with a guard column. The compounds were eluted using gradient method. All prodrugs were run with the solvent B gradient changing 0% to 56% at a rate of 2%/min during a 28-min run. Standard curves generated for each prodrug and their parent drugs were used for quantitation of integrated area under peaks.

Capan-2 cell homogenate = experiment: Prodrug hydrolysis in Capan-2 cell homogenate with the presence and the absence of selective enzyme inhibitors; type: in vitro ADME; conditions: for Half Life, DPP 3 Inhibitor: Capan-2 cell homogenate with 1,10-phenanthroline; for Half Life, DPP 3 Inhibitor / Half Life, TPP 2 Inhibitor / Half Life, Cathepsin D Inhibitor / Half Life, Aminopeptidase Inhibitor / Half Life, Capan-2 Cell Homogenate: 37 °C; for Half Life, DPP 3 Inhibitor / Half Life, TPP 2 Inhibitor / Half Life, Cathepsin D Inhibitor / Half Life, Aminopeptidase Inhibitor: pH 7.4; for Half Life, TPP 2 Inhibitor: Capan-2 cell homogenate with H-Ala-Ala-Phe-CMK CF3CO2H; for Half Life, Cathepsin D Inhibitor: Capan-2 cell homogenate with pepstatin A; for Half Life, Aminopeptidase Inhibitor: Capan-2 cell homogenate with puromycin; for Half Life, Capan-2 Cell Homogenate: no inhibitor, pH 7.4 phosphate buffer, 200 µM substrate, mean ± s.d.
Procedure: Hydrolysis StudiesPreparation of Capan-2 cell homogenates. Preparation of cell homogenates has been reported previously. Confluent Capan-2 cells (2 plates; 150 mm × 25 mm plate) were rinsed with saline twice. The cells were washed off with 5 mL of pH 7.4 phosphate buffer (10 mmol/L) and the lysed cells by ultrasonication (Micro ultrasonic cell disrupter Model KT40, Kontes, Vineland, NJ, USA) were spun down by centrifugation.
as §1, §2
k = 2.303 × slope (log C vs. time) (1)
The degradation half-lives were then estimated by the equation: […]
as §3

Capan-2 cell lines = experiment: Cell proliferation (XTT) assay; type: cell-based; conditions: 4 mmol/L, 4 h drug treatment
Procedure: The percentage of growth inhibition for amino acid/dipeptide monoester prodrugs of floxuridine in Capan-2 cell was evaluated via 2,3-bis[2-methoxy-4-nitro-5-sulfophenyl]-2H-tetrazolium-5-carboxanilideinner salt (XTT) assays (Figure 3). The growth inhibitory effect of tested floxuridine prodrugs after 4 h drug treatment range from 0.0–91.1% at 4 h, 0.0–84.2% at 8 h, and 41.8–84.8% at 24 h in Capan-2 cell lines. […] While specific activation enzymes for 5′-O-L-leucyl-L-glycylfloxuridine and 5′-O-L-phenylalanylfloxuridine have not been identified, those enzymes may be highly localized at the plasma membrane and cytosol. Thus, the activation of those prodrugs took place immediately after translocation of prodrugs into the cells and started inhibiting tumor growth. Leucine and phenylalanine are reportedly good substrates for aminopeptidases and carboxylesterase, respectively.
Cell proliferation studies were conducted with Capan-2 cell lines. The cells were seeded into 96-well plates at […] per well and allowed to attach/grow for 24 h before drug solutions were added. The culture medium (RPMI-1640 + 10% fetal bovine serum) was removed and the cells were gently washed once with sterile pH 6.0 uptake buffer (145 mM NaCl, 0.5 mM MgCl2, 1 mM NaH2PO4, 1 mM CaCl2, 3 mM KCl, 5 mM glucose, and 5 mM MES). Floxuridine prodrugs and floxuridine were diluted in pH 6.0 uptake buffer to 4 mmol/L using no drug as a 100% viability control. The wash buffer was removed and 25 µL drug solution per well were added and incubated at 37 °C for 4 h in the cell incubator. After this time, the drug solutions were removed and the cells were again gently washed twice with sterile uptake buffer. RPMI-1640 was then added to each well after washing. The cells were allowed to recover for 4 h, 8 h, or 24 h before evaluating cell viability via 2,3-bis[2-methoxy-4-nitro-5-sulfophenyl]-2H-tetrazolium-5-carboxanilide inner salt (XTT) assays. […] Absorbance readings at 450 nm were recorded.

[2] = parameters: method as in PMID 18719516; conditions: pH 7.4 phosphate buffer; mean ± s.d.; ref [50]; cited from earlier work
human cathepsin D = biological target: T1, human cathepsin D (Homo sapiens, UniProt P07339); experiment: Prodrug stability with human cathepsin D; type: biochemical; conditions: pH 7.4 phosphate buffer, 37 °C, 200 µM substrate
T1 construct: cathepsin B (human liver), and cathepsin D (human liver) were obtained from Sigma Chemical Co; purchased Sigma Chemical Co (St. Louis, MO, USA); host or cells: human liver (tissue-derived)
T1 sequence (P07339 169-412 limits assumed): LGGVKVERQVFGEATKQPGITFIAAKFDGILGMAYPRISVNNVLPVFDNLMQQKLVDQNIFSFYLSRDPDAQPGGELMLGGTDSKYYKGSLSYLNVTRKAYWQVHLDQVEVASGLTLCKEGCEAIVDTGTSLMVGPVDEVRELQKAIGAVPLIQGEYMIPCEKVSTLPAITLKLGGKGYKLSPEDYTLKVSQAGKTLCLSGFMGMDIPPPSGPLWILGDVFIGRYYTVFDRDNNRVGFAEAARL
T1 sequence (P07339 65-162 limits assumed): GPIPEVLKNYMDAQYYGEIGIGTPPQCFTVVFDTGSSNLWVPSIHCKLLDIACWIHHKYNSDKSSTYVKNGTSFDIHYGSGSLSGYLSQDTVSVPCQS
Excerpt: (§4) The high expression levels of cathepsins in tumors have been reported. It has been investigated if the protein levels of cathepsin B and D would associate with pathological parameters in order to assess the difference in protein levels of cathepsins as possible tumor biomarkers. Cathepsin B, one of the highest gene expressions in enzymes of Capan-2 cell, is a cysteine endopeptidase and reportedly has similar activity to carboxypeptidase and peptidyl-dipeptidase. On the other hand, cathepsin D has been reported that it preferentially hydrolyzes the peptide bond of bulky hydrophobic amino acids and the peptide bond between Phe-Phe of Bz-Arg-Gly-Phe-Phe-Pro-4MbNA [75, 76, 77]. The metabolic stability of floxuridine prodrugs was assessed using human cathepsin B and D in pH 7.4 phosphate buffer. […] However, the enzyme specificity between cathepsin B and D in prodrug activation for those two prodrugs was not observed.
(§5) Prodrug stability with Cathepsin B and D. Lyophilized enzyme powder was dissolved and adjusted to 2.5 mg/mL of pure enzyme, human cathepsin B and D. The hydrolysis reactions were immediately started by adding substrates (200 µM) in 96-well plates (Corning). The reactions were carried out at 37 °C for 120 min (time points; 0, 5, 10, 30, 60, and 120 min). At each time point, aliquot sample (35 µL) was removed and added to 150 µL of acetonitrile (ACN) with 0.1% TFA. The mixtures were filtered with a 0.45 µm filters at 1,000 × g for 10 min at 4 °C. The filtrate was then analyzed via reverse-phase HPLC.
as §2, with “The slopes of these plots are related to the rate constant, k, and given by:” left out
(§6) The concentrations of prodrugs and their metabolites were determined on a Waters HPLC system (Waters, Inc., Milford, MA, USA). […] Standard curves generated for each prodrug and their parent drugs were used for quantitation of integrated area under peaks.

human cathepsin B = biological target: T2, human cathepsin B (Homo sapiens, UniProt P07858); experiment: Prodrug stability with human cathepsin B; type: biochemical; conditions: pH 7.4 phosphate buffer, 37 °C, 200 µM substrate
T2 construct: cathepsin B (human liver), and cathepsin D (human liver) were obtained from Sigma Chemical Co; purchased Sigma Chemical Co (St. Louis, MO, USA); host or cells: human liver (tissue-derived)
Excerpt: as §4, §5
as §2, with “The slopes of these plots are related to the rate constant, k, and given by:” left out
as §6

Row | Half Life, DPP 3 Inhibitor (Capan-2 cell homogenate) | Half Life, TPP 2 Inhibitor (Capan-2 cell homogenate) | Half Life, Cathepsin D Inhibitor (Capan-2 cell homogenate) | Half Life, Aminopeptidase Inhibitor (Capan-2 cell homogenate) | Half Life, Capan-2 Cell Homogenate (Capan-2 cell homogenate) | Fold decline of stability in cytosolic extract versus Capan-2 cell homogenate ([1]; 37 °C, pH 7.4 phosphate buffer) | Stability (degradation) against cathepsin D compared with absence of enzyme (human cathepsin D) | Stability (degradation) against cathepsin B compared with absence of enzyme (human cathepsin B) | Change of half life with the presence of pepstatin A (Capan-2 cell homogenate; Capan-2 cell homogenate) | Change of half lives with other enzyme inhibitors (not pepstatin A) (Capan-2 cell homogenate; Capan-2 cell homogenate) | SMILES | Hydrolysis products detected in cell homogenates and cytosolic enzyme extracts [1] | Change of stability in all conditions (with and without enzyme inhibitors) (Capan-2 cell homogenate; Capan-2 cell homogenate) | Hydrolysis products observed (Capan-2 cell homogenate; Capan-2 cell homogenate) | Onset of growth inhibition of tumor cells (Capan-2 cell lines) | Half Life, Phosphate Buffer pH 7.4 [2] | Fold longer half life (stability improved) in cytosolic extract than in Capan-2 cell homogenate ([1]; 37 °C, pH 7.4 phosphate buffer)
1 | – | – | – | – | – | – | – | – | – | – | CC(C)C[C@H](NC(=O)CN)C(=O)OC[C@H]1O[C@@H](n2cc(F)c(=O)[nH]c2=O)C[C@@H]1O [5'-O-L-glycyl-L-leucylfloxuridine] | Floxuridine and amino acid mono ester prodrugs of floxuridine were observed | no change in its stability in all conditions | Amino acid monoester prodrugs of floxuridine and their parent drug were observed | – | – | –
2 | 32.2 ± 9.3 min | 5.6 ± 0.6 min | 7.9 ± 0.7 min | 14.0 ± 4.3 min | 3.9 ± 1.1 min | – | – | – | – | – | CC(C)C[C@H](N)C(=O)NCC(=O)OC[C@H]1O[C@@H](n2cc(F)c(=O)[nH]c2=O)C[C@@H]1O [5'-O-L-leucyl-L-glycylfloxuridine] | only floxuridine was detected | – | – | immediately inhibited the growth of tumor cells | 23.1 ± 4.1 min | –
3 | 47.2 ± 3.6 min | 42.2 ± 1.3 min | 105.7 ± 12.8 min | 54.7 ± 2.8 min | 42.8 ± 0.0 min | 3.9 fold | significant degradation | significant degradation | significantly prolonged | not improved | N[C@@H](Cc1ccccc1)C(=O)N[C@@H](Cc1ccc(O)cc1)C(=O)OC[C@H]1O[C@@H](n2cc(F)c(=O)[nH]c2=O)C[C@@H]1O [5'-O-L-phenylalanyl-L-tyrosyl-floxuridine] | Floxuridine and amino acid mono ester prodrugs of floxuridine were observed | – | Amino acid monoester prodrugs of floxuridine and their parent drug were observed | – | 233.9 ± 6.6 min | –
4 | 67.7 ± 15.1 min | 46.1 ± 1.9 min | 76.4 ± 6.1 min | 93.6 ± 29.3 min | 56.2 ± 12.8 min | – | not a good substrate for cathepsins | not a good substrate for cathepsins | – | – | CC(C)[C@H](N)C(=O)N[C@@H](Cc1ccccc1)C(=O)OC[C@H]1O[C@@H](n2cc(F)c(=O)[nH]c2=O)C[C@@H]1O [5'-O-L-valyl-L-phenylalanyl-floxuridine] | Floxuridine and amino acid mono ester prodrugs of floxuridine were observed | – | Amino acid monoester prodrugs of floxuridine and their parent drug were observed | – | 104.7 ± 7.0 min | –
5 | – | – | – | – | – | – | – | – | – | – | CC[C@H](C)[C@H](N)C(=O)NCC(=O)OC[C@H]1O[C@@H](n2cc(F)c(=O)[nH]c2=O)C[C@@H]1O [5′-O-L-isoleucyl-L-glycylfloxuridine] | only floxuridine was detected | – | – | – | – | –

Row | SMILES | Half Life, DPP 3 Inhibitor (Capan-2 cell homogenate) | Half Life, TPP 2 Inhibitor (Capan-2 cell homogenate) | Half Life, Cathepsin D Inhibitor (Capan-2 cell homogenate) | Half Life, Aminopeptidase Inhibitor (Capan-2 cell homogenate) | Half Life, Capan-2 Cell Homogenate (Capan-2 cell homogenate) | Fold decline of stability in cytosolic extract versus Capan-2 cell homogenate ([1]; 37 °C, pH 7.4 phosphate buffer) | Stability (degradation) against cathepsin D compared with absence of enzyme (human cathepsin D) | Stability (degradation) against cathepsin B compared with absence of enzyme (human cathepsin B) | Change of half life with the presence of pepstatin A (Capan-2 cell homogenate; Capan-2 cell homogenate) | Change of half lives with other enzyme inhibitors (not pepstatin A) (Capan-2 cell homogenate; Capan-2 cell homogenate) | Hydrolysis products detected in cell homogenates and cytosolic enzyme extracts [1] | Change of stability in all conditions (with and without enzyme inhibitors) (Capan-2 cell homogenate; Capan-2 cell homogenate) | Hydrolysis products observed (Capan-2 cell homogenate; Capan-2 cell homogenate) | Onset of growth inhibition of tumor cells (Capan-2 cell lines) | Half Life, Phosphate Buffer pH 7.4 [2] | Fold longer half life (stability improved) in cytosolic extract than in Capan-2 cell homogenate ([1]; 37 °C, pH 7.4 phosphate buffer)
6 | N[C@@H](Cc1ccccc1)C(=O)OC[C@H]1O[C@@H](n2cc(F)c(=O)[nH]c2=O)C[C@@H]1O [5'-O-L-phenylalanylfloxuridine] | 28.9 ± 10.7 min | 15.3 ± 0.6 min | 60.6 ± 4.6 min | 48.7 ± 0.37 min | 3.0 ± 0.1 min | – | – | – | – | – | only floxuridine was detected | – | – | immediately inhibited the growth of tumor cells | 187.0 ± 19.0 min | 7.3 fold
